From paper PMC8637440, “Structural Modifications Yield Novel Insights Into the Intriguing Pharmacodynamic Potential of Anti-inflammatory Nitro-Fatty Acids” (Frontiers in Pharmacology, 2021)

Tested on: sEH
Experiment: Cell-based sEH activity assay in COS-7 cells
Set-up: species or system Afrikan green monkey
Conditions: 10 µM, 24 h
Protocol: sEH activity in the cells was analyzed using a Soluble Epoxide Hydrolase Cell-Based Assay Kit (Cayman Chemical, #600090). […] Following incubation, the cells were processed according to the manufacturer’s instructions. The assay uses an internal signal subtraction to minimize potential errors generated by sEH-independent product formation due esterase mediated hydrolysis. The fluorescence intensity of the samples was measured in a plate reader at excitation/emission wavelengths of 330/465 nm sEH activity was calculated by the 6-methoxy-2-naphthaldehyde standard curve.
Suppl. Figure 2: Effects of NFA on sEH activity in COS-7 cells. sEH activity in COS-7 cells treated with NFA (10 µM) differ in (A) chain length and (B) Michael acceptor position and […]
Cells were lysed, and hydrolase activity was measured by Epoxy Fluor
7 lysis presented as mean + SD, n=2-3. […] OA, […]
oleic acid, she, soluble epoxide hydrolase.
(1 picture or pasted object on this page, not shown here)

CCCCCCCC/C=C\CCCCCCCC(=O)O [OA, oleic acid, reference compound]
inhibition of sEH activity in COS-7 cells: strong suppressive effect
